# Patent US9221907B2, “Anti-GPR49 monoclonal antibodies” (Bionomics Inc., priority 2011, dated 2015)
# Test system: colon tumor cells re-implanted in secondary recipients
# Assay: Secondary transplant of GPR49 mAb+irinotecan treated tumor cells
# Type: in vivo, mouse
# Conditions: 140 day follow-up
# Source text: Isolated tumor cells from control or GPR49 mAb+irinotecan treated tumors from the in vivo study outlined in Example 3 were harvested, pooled, dissociated and re-implanted in a limiting dilution secondary transplant assay to measure cancer stem cell frequency. For each treatment group, 8 mice were implanted with 10, 30, 100 cells. […]
structure (smiles),measurement,value
CCc1c2c(nc3ccc(OC(=O)N4CCC(N5CCCCC5)CC4)cc13)-c1cc3c(c(=O)n1C2)COC(=O)[C@]3(O)CC [Irinotecan],mice with tumors,7/8
